# US8658183B2, “Antimicrobial parenteral formulation” (Taigen Biotechnology Company, Ltd., priority 2007, dated 2014)
# Like-named read-outs stand apart in the source and are kept apart here.
# Assays:
# S. pneumoniae Stp 6301 = assay: In vivo antibacterial efficacy, mouse pulmonary infection model
# Description: The in vivo antibacterial efficacy of Compound 1 was evaluated in a mouse model. Mice were anesthetized and infected intranasally with a lethal amount of S. pneumoniae Stp 6301. Twelve, eighteen, and twenty-four hours after the infection, a composition containing Compound 1 or moxifloxacin (as a positive control), 0.7% lactic acid, and 3% dextrose was administered subcutaneously to the mice at a total dose of 50, 25, 12.5, or 6.25 mg/kg. Half of the treated mice were euthanized four hours after the last treatment of Compound 1 or moxifloxacin and their blood and lung tissues were collected. The number of viable bacteria in the blood and lung tissues was then determined. The lung tissues were also subjected to histopathologic evaluation. The other half of the mice were monitored for 6 days and the number of the surviving mice was recorded.
# [1] = Effect of lower temperature (−15° C.) on Compound 1 saline formulation; format: physicochemical; settings: 5 mg/mL in 0.9% saline
# E. coli = assay: In vitro antibacterial activity, agar dilution; format: cell-based; settings: clinical isolates
# Description: (§1) Various bacterial species, such as Gram positive bacteria (e.g., Clostridium, Staphylococcus and Streptococcus), Gram negative bacteria (e.g., Moraxella, Haemophilus, Pseudomonas, Proteus, and Bacteriodes), anaerobic and atypical pathogens, were isolated from clinical samples. The antibacterial activity of Compound of Formula I against these bacterial species were determined using agar dilution assays described in the U.S. National Committee for Clinical Laboratory, M7-A6, 2003, and M11-A5, 2001.
# Neisseria gonorrhoeae = assay: In vitro antibacterial activity, agar dilution; format: cell-based; settings: clinical isolates
# Description: as §1
# S. pneumoniae = assay: In vitro antibacterial activity, agar dilution; format: cell-based
# Description: as §1
# Bacteroides species = assay: In vitro antibacterial activity, agar dilution; format: cell-based; settings: anaerobic pathogens, clinical isolates
# Description: as §1
# enteric organisms = assay: In vitro antibacterial activity, agar dilution; format: cell-based; settings: clinical isolates
# Description: as §1
# Clostridium difficile = assay: In vitro antibacterial activity, agar dilution; format: cell-based; settings: anaerobic pathogen, clinical isolates
# Description: as §1
# Moraxella catarrhalis = assay: In vitro antibacterial activity, agar dilution; format: cell-based; settings: clinical isolates
# Description: as §1
# Haemophilus influenzae = assay: In vitro antibacterial activity, agar dilution; format: cell-based; settings: clinical isolates
# Description: as §1
# [2] = tested on: Gram positive, Gram negative, anaerobic, and atypical pathogens; assay: In vitro antibacterial activity, agar dilution; format: cell-based; settings: clinical isolates
# Description: as §1
# Proteus mirabilis = assay: In vitro antibacterial activity, agar dilution; format: cell-based; settings: clinical isolates
# Description: as §1
# [3] = tested on: methicillin-susceptible S. aureus (MSSA); assay: In vitro antibacterial activity, agar dilution; format: cell-based
# Description: as §1
# Klebsiella pneumoniae = assay: In vitro antibacterial activity, agar dilution; format: cell-based; settings: clinical isolates
# Description: as §1
# Pseudomonas aeruginosa = assay: In vitro antibacterial activity, agar dilution; format: cell-based; settings: clinical isolates
# Description: as §1
# [4] = Long-term and accelerated storage stability of Compound 1 saline formulation; format: physicochemical; settings: 5 mg/mL (free base) in 0.9% saline
# Description: At each sampling point (marked as “X” in the above table), samples were evaluated for their appearance, color, clarity, pH, UV absorption, assay and impurity.
# [5] = Effect of activated charcoal on Compound 1 saline formulation; settings: 5 mg/mL in 0.9% NaCl
# [6] = for Appearance: 5 mg/mL (free base) in 0.9% saline, light box 4500Lx+/−500Lx; for UV Absorption: compared with Standard; for UV Absorption / pH Value: intense light 4500Lx+/−500Lx
# staphylococci = assay: In vitro antibacterial activity, agar dilution; format: cell-based, Staphylococcus
# Description: as §1
# [7] = 5 mg/mL in 0.9% saline
# Description: The solution was filtered and transferred to 100-mL polypropylene bottles. The bottles were capped, sealed, sterilized at 110° C. for 35 min, and stored at 60° C. oven. The solution in the bottles was analyzed on days 0, 5, and 10.
# [8] = Effect of pH on Compound 1 saline formulation; format: physicochemical; settings: 5 mg/mL in 0.9% saline
# streptococci = assay: In vitro antibacterial activity, agar dilution; format: cell-based, Streptococcus
# Description: as §1
# [9] = Effect of iron content on Compound 1 saline formulation; format: physicochemical; settings: 5 mg/mL in 0.9% saline, filtered, sterilized
# Description: The solution was equally divided into 2 portions. To one portion was added 0.25 g activated charcoal and to the other was added 0.25 g activated charcoal and 0.1 g of iron powder. Each of the resulting mixture was stirred and filtered to a 100-mL polypropylene bottle.
# [10] = activated charcoal added 0.02% (g/mL)
# [11] = activated charcoal added 0.05% (g/mL)
# [12] = activated charcoal added 0.5% (g/mL)
# [13] = activated charcoal and iron powder added
# [14] = activated charcoal, no iron powder
smiles,measurement,setting,value
"COc1c(N2C[C@@H](C)C[C@H](N)C2)ccc2c(=O)c(C(=O)O)cn(C3CC3)c12 [Compound 1, (3S,5S)-7-[3-amino-5-methyl-piperidinyl]-1-cyclopropyl-1,4-dihydro-8-methoxy-4-oxo-3-quinolinecarboxylic acid]",survival,"S. pneumoniae Stp 6301; lethal intranasal infection, s.c. total dose 50, 25, 12.5 or 6.25 mg/kg (all tested levels), monitored 6 days",100%
same,viable bacteria in lung and blood,"S. pneumoniae Stp 6301; mice infected intranasally, s.c. 12, 18, 24 h after infection, total dose 50, 25, 12.5 or 6.25 mg/kg (all levels), 4 h after last treatment, vs vehicle-treated controls",significantly reduced
same,efficacy compared with moxifloxacin,"S. pneumoniae Stp 6301; same dosage levels, pulmonary infection model",more efficacious than moxifloxacin
same,Appearance,[1]; 0 day at −15° C.,Clear yellow
same,Content,[1]; 0 day at −15° C.,102.6
same,Total Impurity (%),[1]; 0 day at −15° C.,0.378%
same,pH Value,[1]; 0 day at −15° C.,3.90
same,Appearance,[1]; 5 days at −15° C.,Clear yellow
same,Content,[1]; 5 days at −15° C.,102.8
same,Total Impurity (%),[1]; 5 days at −15° C.,0.370%
same,pH Value,[1]; 5 days at −15° C.,3.89
same,Appearance,[1]; 10 days at −15° C.,Clear yellow
same,Content,[1]; 10 days at −15° C.,103.5
same,Total Impurity (%),[1]; 10 days at −15° C.,0.373%
same,pH Value,[1]; 10 days at −15° C.,3.89
same,"Appearance, compound content, pH and total impurity (summary in words)",[1]; −15° C. for 10 days,maintained the same
same,MIC90,E. coli,0.12 µg/mL
same,MIC90,Neisseria gonorrhoeae,0.06 µg/mL
same,MIC90,S. pneumoniae; macrolide-resistant S. pneumoniae isolates,0.12 µg/mL
same,MIC90,S. pneumoniae; penicillin-resistant S. pneumoniae isolates,0.12 µg/mL
same,MIC90,S. pneumoniae; susceptible S. pneumoniae isolates,0.12 µg/mL
same,antibacterial activity (in words),Bacteroides species,active
same,antibacterial activity (in words),enteric organisms,active against most enteric organisms
same,antibacterial activity (in words),Clostridium difficile,active
same,MIC90,Moraxella catarrhalis,0.03 µg/mL
same,MIC90,Haemophilus influenzae,0.12 µg/mL
same,antibacterial activity (in words),[2],"potent, broad-spectrum antibacterial activity"
same,MIC90,Proteus mirabilis,0.5 µg/mL
same,MIC90,[3]; ciprofloxacin-resistant MSSA clinical isolates,0.5 µg/mL
same,MIC90,[3]; ciprofloxacin-sensitive MSSA clinical isolates,0.06 µg/mL
same,MIC90,Klebsiella pneumoniae,1 µg/mL
same,antibacterial activity (in words),Pseudomonas aeruginosa,active against many isolates
same,"Changes in appearance, color, clarity, pH, UV absorption, assay and impurity","[4]; 25° C., 60% RH, 12 months",No significant changes
same,"Changes in appearance, color, clarity, pH, UV absorption, assay and impurity","[4]; 40° C., 20% RH, 6 months",No significant changes
same,Comparative content of Compound 1 (%),[5]; activated charcoal added 0,109.0%
same,pH Value,"[5]; activated charcoal added 0, boiled 25 min, filtered, sterilized",3.96
same,Comparative content of Compound 1 (%),[5]; [10],108.8%
same,pH Value,[5]; [10],3.88
same,Comparative content of Compound 1 (%),[5]; [11],109.2%
same,pH Value,[5]; [11],3.88
same,Comparative content of Compound 1 (%),[5]; [12],63.9%
same,pH Value,[5]; [12],3.80
same,Appearance,[6]; 0 day,Clear yellow
same,Appearance,[6]; 5 days,Clear yellow
same,Appearance,[6]; 10 days,Clear yellow
same,UV Absorption,[6]; 0 day,Consist with
same,UV Absorption,[6]; 5 days,Consist with
same,UV Absorption,[6]; 10 days,Consist with
same,pH Value,[6]; 0 day,3.90
same,pH Value,[6]; 5 days,3.89
same,pH Value,[6]; 10 days,3.89
same,MIC values,staphylococci; all staphylococci in this study,< 2 µg/mL
same,antibacterial activity (in words),staphylococci; including methicillin-resistant S. aureus (MRSA),especially active
same,Appearance,"[7]; sterilized, 0 day",Clear yellow
same,Comparative content of Compound 1 (%),"[7]; sterilized, 0 day",102.6%
same,Total Impurity (%),"[7]; sterilized, 0 day",0.378%
same,pH Value,"[7]; sterilized, 0 day",3.90
same,Appearance,[7]; 5 days at 60° C.,Clear yellow
same,Comparative content of Compound 1 (%),[7]; 5 days at 60° C.,103.2%
same,Total Impurity (%),[7]; 5 days at 60° C.,0.375%
same,pH Value,[7]; 5 days at 60° C.,3.88
same,Appearance,[7]; 10 days at 60° C.,Clear yellow
same,Comparative content of Compound 1 (%),[7]; 10 days at 60° C.,104.0%
same,Total Impurity (%),[7]; 10 days at 60° C.,0.410%
same,pH Value,[7]; 10 days at 60° C.,3.88
same,Appearance,[8]; pH 2.17,clear yellow solution
same,Comparative content of Compound 1 (%),[8]; pH 2.17,96.68%
same,Appearance,[8]; pH 4.50,clear yellow solution
same,Comparative content of Compound 1 (%),[8]; pH 4.50,101.14%
same,Appearance,[8]; pH 6.60,White precipitate
same,MIC values,streptococci; all streptococci in this study,< 1 µg/mL
same,antibacterial activity (in words),streptococci; including multi-resistant S. pneumoniae,especially active
same,Appearance,[9]; [13],Reddish Brown
same,pH,[9]; [13],3.77
same,Appearance,[9]; [14],Light yellow
same,pH,[9]; [14],3.78
